# Calls of active or inactive are those of the source.
# Experiments:
# Cytochrome P450 2D6 = Cytochrome P450 2D6 (Homo sapiens, UniProt P10635);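 note: CYP2D6 member of a cytochrome P450 panel assay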
# HEK293 [1] = test: cells; type: functional, cell-based; conditions: Homo sapiens
# HEK293 [2] = test: inhibition of NOD1-driven NF-kB reporter – cell-based, luminescence, uHTS, primary screen (AID 1578); type: functional; conditions: Homo sapiens
# [3] = non-specific 3'UTR reporter inhibition in Clone20-Shn3RL – cell-based, Renilla luciferase, cherry-picked, counter-screen for Shn3 inhibitor project, dose response (AID 624133); type: functional
# [4] = reduction of Shn3 3'UTR-driven luciferase in osteoblasts – cell-based, Clone20 osteoblasts, firefly luciferase, cherry-picked, dose response (AID 624132); type: functional;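 note: firefly luciferase luminescence from reporter carrying the Shn3 3'UTR in osteoblasts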
# HEK293 [5] = test: cells; type: functional, cell-based; conditions: Homo sapiens; remark: listed apart in the source
# HEK293 [6] = test: NOD2 signaling inhibitors in MDP-stimulated cells, cell-based, uHTS, luminescence (AID 2001); type: functional; conditions: Homo sapiens
# [7] = loss of viability in HepG2 cells – cell-based, CellTiter-Glo, cherry-picked, cytotoxicity control for Shn3 inhibitor project, dose response (AID 624134); type: functional
# HeLa = test: ATP-based viability loss in HeLa cells – cell-based, CellTiter-Glo luminescence, cherry-pick samples, cytotoxicity control for MITF activator project, dose response (AID 540259); type: functional; conditions: Homo sapiens
# Vero [8] = test: cells; type: functional, cell-based; conditions: Chlorocebus sabaeus
# [9] = viability loss in HeLa cells – cytotoxicity control for MgcRacGAP inhibitor project, dose response (AID 624300); type: functional
# [10] = target: T1, Rac GTPase-activating protein 1 (Homo sapiens, UniProt Q9H0H5); test: blockers of MgcRacGAP-driven Rac1 GTP hydrolysis – biochemical, ADP Hunter fluorescence, primary and confirmatory, confirmation (AID 624330); type: functional
# T1 sequence (Q9H0H5 whole entry): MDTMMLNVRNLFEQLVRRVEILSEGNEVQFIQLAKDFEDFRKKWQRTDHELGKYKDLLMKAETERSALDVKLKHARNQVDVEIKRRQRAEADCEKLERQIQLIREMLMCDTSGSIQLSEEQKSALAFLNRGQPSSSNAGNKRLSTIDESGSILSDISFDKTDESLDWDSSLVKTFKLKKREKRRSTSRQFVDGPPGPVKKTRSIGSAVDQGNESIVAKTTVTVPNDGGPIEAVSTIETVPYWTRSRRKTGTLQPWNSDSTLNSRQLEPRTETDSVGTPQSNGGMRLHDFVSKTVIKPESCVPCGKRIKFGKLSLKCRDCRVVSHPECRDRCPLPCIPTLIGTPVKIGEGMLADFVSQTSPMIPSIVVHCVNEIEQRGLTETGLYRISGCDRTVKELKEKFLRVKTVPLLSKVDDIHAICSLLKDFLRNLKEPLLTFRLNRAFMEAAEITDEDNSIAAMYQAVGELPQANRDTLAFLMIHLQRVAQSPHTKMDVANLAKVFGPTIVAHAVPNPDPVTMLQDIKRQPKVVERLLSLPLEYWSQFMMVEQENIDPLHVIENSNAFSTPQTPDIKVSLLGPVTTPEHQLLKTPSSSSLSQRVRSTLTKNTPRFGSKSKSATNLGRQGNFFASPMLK
# [11] = target: Glucose-6-phosphate 1-dehydrogenase (Homo sapiens, UniProt P11413); test: inhibition of Homo sapiens G6PD, dose series – biochemical, fluorescence, selectivity assay for P. falciparum G6PD inhibitor project, dose response (AID 504792); type: functional
# [12] = target: DNA (cytosine-5)-methyltransferase 1 (Homo sapiens, UniProt P26358); test: inhibition of DNA methylation by DNMT1 – biochemical, fluorescent molecular beacon, confirmation (AID 602386); type: functional
# Genome polyprotein = Genome polyprotein (dengue virus type 2, UniProt P29990); test: flavivirus cap methylation enzyme inhibition – biochemical, confirmation dose response, primary screen (AID 588689); type: functional
# [13] = target: T2, Histone-lysine N-methyltransferase NSD2 (Homo sapiens, UniProt O96028); type: biochemical
# T2 sequence (O96028 whole entry): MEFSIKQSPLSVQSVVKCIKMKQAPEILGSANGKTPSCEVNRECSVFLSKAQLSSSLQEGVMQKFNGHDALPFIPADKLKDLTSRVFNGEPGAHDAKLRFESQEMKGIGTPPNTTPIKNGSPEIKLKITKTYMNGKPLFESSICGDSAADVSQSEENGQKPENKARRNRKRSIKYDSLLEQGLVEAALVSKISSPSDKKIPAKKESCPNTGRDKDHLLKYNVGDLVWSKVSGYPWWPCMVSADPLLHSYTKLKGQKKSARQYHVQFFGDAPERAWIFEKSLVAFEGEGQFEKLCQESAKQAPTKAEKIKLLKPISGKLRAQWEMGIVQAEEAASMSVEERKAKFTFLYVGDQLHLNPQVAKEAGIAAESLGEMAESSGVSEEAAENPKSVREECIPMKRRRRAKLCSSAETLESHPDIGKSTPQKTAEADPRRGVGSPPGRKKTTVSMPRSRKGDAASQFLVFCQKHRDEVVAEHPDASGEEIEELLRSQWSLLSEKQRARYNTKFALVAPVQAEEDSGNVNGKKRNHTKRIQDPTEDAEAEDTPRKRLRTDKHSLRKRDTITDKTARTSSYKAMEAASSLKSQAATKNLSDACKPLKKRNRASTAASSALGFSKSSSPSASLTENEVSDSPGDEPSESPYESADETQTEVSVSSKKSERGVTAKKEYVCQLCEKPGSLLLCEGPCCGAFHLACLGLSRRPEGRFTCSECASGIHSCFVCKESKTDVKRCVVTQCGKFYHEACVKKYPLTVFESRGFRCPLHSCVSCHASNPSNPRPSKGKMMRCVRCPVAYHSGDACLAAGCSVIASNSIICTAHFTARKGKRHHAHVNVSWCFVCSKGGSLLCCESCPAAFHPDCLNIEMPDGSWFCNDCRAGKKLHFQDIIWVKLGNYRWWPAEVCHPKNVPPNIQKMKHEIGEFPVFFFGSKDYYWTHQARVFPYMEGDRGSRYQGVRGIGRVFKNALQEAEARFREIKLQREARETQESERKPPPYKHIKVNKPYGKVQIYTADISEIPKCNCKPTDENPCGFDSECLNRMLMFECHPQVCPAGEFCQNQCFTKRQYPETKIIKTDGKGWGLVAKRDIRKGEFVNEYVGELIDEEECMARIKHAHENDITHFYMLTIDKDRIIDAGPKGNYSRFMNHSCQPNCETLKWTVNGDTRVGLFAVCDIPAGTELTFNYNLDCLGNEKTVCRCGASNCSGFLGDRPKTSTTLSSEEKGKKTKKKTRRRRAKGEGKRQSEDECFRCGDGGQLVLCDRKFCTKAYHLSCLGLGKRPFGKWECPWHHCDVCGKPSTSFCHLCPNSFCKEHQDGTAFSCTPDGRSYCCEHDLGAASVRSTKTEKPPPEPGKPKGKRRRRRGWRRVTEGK
# [14] = target: Induced myeloid leukemia cell differentiation protein Mcl-1 (Homo sapiens, UniProt Q07820); type: functional
# Streptococcus = test: GAS UMAA2166 growth inhibition – luminescence, BacTiterGlo, counter-screen for streptokinase expression inhibitor project, dose response (AID 1915); type: functional, organism-based;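 note: potency for reduction of bacterial viability or growth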
# Vero [15] = test: cells; type: functional; conditions: Chlorocebus sabaeus
# Streptokinase A = target: T3, Streptokinase A (Streptococcus pyogenes serotype M1, UniProt P10520); test: viability-normalized secreted streptokinase activity reduction – plasminogen activation absorbance, OD405, dose response (AID 1914); type: functional, Streptococcus pyogenes M1 GAS;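 note: secreted streptokinase activity via plasminogen activation per viability signal from cell pellet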
# T3 sequence (P10520 whole entry): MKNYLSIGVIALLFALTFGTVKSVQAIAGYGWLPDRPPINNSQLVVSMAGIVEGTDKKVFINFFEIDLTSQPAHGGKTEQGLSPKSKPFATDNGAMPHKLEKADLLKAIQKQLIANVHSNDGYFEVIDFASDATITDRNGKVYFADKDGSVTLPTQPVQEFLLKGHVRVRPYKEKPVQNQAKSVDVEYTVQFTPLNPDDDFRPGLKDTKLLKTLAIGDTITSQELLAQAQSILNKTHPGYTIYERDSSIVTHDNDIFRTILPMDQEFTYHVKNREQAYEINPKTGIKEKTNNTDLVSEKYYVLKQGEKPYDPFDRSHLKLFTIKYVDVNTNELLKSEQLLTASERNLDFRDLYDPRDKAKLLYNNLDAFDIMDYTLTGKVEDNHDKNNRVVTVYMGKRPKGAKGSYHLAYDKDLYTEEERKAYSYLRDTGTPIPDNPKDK
# [16] = test system: Streptococcus sp. 'group A'; test: Streptococcus pyogenes SK(-)GAS viability under kanamycin – luminescence, BacTiterGlo, confirmation, counter-screen for streptokinase expression inhibitor project, dose response (AID 1900); type: functional, organism-based
# Chain of Cytochrome P450 2D6 (P10635 whole entry): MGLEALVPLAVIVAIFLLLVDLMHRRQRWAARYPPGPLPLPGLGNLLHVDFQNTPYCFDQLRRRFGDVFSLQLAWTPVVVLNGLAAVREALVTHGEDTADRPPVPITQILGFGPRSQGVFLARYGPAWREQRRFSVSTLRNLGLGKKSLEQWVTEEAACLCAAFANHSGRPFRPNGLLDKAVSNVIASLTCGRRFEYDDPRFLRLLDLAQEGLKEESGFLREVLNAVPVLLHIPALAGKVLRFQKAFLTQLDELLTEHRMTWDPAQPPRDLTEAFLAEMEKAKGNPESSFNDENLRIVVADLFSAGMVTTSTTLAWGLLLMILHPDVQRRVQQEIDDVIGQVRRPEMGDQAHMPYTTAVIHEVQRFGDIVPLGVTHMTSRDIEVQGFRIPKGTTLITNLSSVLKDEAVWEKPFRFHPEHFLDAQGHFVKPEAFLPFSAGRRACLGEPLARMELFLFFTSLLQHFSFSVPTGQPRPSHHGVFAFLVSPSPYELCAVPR
# Chain of Glucose-6-phosphate 1-dehydrogenase (P11413 whole entry): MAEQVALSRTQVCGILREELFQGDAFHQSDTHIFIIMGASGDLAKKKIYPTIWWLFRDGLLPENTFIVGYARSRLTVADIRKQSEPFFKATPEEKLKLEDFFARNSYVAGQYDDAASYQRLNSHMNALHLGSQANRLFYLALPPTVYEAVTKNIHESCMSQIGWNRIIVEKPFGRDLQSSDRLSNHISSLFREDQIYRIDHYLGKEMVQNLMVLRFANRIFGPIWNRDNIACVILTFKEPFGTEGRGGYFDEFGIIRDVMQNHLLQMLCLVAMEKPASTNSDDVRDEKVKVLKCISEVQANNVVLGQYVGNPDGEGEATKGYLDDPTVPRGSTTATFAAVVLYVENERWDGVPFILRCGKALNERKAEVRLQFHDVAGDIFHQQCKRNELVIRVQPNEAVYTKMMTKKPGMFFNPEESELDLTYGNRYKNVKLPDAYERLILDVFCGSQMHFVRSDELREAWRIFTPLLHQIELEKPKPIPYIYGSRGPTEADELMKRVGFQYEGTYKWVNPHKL
# Chain of Induced myeloid leukemia cell differentiation protein Mcl-1 (Q07820 whole entry): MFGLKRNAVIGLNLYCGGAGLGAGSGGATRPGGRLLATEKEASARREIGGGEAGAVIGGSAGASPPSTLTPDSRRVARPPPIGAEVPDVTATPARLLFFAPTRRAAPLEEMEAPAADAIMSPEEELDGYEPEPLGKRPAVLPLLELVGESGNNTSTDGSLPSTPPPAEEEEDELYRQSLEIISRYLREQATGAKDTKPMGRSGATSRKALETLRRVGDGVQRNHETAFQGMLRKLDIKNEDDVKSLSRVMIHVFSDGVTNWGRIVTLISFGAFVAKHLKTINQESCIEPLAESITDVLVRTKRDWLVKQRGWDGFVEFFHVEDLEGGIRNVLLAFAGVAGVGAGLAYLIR
# Chain of Genome polyprotein (P29990 2492-3391 limits assumed): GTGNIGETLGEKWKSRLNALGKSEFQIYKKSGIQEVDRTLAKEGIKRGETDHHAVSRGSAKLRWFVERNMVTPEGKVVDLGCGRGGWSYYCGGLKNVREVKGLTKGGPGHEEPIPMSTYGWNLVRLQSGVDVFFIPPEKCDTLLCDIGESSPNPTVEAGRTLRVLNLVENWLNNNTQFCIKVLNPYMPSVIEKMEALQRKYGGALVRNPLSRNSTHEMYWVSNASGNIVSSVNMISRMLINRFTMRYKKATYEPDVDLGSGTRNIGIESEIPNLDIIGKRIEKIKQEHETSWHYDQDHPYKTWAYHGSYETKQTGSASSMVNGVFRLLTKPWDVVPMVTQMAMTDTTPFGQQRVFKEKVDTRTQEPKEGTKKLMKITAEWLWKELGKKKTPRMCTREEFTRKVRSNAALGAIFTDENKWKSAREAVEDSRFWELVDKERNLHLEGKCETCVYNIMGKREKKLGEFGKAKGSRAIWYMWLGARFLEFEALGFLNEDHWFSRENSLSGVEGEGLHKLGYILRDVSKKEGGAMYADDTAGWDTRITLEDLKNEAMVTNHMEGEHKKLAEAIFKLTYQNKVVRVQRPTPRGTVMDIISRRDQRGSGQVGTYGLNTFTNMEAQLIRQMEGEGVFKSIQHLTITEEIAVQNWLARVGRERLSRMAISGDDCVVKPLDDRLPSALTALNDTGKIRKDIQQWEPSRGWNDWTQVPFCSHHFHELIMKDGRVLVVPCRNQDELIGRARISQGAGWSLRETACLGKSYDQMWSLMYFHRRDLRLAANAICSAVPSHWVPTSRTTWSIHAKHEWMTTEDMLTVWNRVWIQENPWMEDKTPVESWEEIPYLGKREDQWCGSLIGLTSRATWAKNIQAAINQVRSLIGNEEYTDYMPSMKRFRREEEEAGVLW
# Chain of DNA (cytosine-5)-methyltransferase 1 (P26358 whole entry): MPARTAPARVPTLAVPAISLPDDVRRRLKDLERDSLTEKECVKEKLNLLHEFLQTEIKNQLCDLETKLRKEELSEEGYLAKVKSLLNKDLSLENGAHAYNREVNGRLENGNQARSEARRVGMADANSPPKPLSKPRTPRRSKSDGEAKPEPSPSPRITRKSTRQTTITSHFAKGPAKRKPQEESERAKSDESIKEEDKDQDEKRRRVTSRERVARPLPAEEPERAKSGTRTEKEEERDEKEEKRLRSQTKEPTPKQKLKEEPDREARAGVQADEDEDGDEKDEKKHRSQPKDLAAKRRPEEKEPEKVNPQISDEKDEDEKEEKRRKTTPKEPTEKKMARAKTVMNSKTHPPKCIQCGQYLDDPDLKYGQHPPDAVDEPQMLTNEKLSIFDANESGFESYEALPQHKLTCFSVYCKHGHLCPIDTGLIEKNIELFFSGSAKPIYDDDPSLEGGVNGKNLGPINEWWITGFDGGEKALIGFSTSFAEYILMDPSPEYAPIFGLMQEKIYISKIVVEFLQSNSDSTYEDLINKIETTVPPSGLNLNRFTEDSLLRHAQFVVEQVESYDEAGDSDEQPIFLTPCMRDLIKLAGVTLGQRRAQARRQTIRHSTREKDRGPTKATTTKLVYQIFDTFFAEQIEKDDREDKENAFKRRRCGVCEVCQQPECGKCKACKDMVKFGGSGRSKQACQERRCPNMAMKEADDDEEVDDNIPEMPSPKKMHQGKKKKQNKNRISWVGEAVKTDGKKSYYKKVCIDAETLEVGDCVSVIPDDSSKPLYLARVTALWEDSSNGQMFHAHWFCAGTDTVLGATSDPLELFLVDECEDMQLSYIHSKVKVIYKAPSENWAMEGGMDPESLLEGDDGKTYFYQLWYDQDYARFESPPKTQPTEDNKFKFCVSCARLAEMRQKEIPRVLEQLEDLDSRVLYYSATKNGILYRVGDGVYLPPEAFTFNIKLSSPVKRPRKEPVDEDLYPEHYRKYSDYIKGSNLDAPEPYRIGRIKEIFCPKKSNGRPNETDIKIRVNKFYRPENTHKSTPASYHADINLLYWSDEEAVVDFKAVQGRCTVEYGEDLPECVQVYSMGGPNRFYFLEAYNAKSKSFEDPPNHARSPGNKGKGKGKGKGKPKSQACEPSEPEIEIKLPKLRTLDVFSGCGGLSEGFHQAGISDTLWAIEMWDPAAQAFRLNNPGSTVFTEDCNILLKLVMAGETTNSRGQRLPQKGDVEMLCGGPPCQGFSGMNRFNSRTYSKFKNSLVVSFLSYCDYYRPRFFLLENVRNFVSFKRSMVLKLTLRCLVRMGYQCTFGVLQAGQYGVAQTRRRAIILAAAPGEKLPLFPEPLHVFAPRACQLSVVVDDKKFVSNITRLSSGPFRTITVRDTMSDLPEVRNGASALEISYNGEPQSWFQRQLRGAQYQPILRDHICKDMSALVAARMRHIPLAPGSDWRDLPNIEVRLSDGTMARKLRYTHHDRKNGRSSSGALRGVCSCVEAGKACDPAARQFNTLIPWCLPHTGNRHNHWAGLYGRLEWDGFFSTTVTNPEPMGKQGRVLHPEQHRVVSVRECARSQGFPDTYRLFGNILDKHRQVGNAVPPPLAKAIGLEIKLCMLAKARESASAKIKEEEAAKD
smiles,measurement,setting,value
OCCN(CO)CO,AC50,Cytochrome P450 2D6,inconclusive
NS(=O)(=O)c1cc2c(cc1Cl)N=C(CCC(=O)O)N=S2(=O)O,AC50,Cytochrome P450 2D6,inconclusive
Cn1cc(S(=O)(=O)N2CCc3ccccc32)cc1C(=O)NC(C)(C)C,IC50,HEK293 [1],10.6 µM (active)
same,EC50,HEK293 [2],3.38 µM (active)
same,AC50,[3],1.37 µM (active)
same,AC50,[4],1.25 µM (active)
same,IC50,HEK293 [5],> 20 µM (inactive)
same,IC50,HEK293 [6],12.3 µM (inactive)
same,AC50,[7],3.56 µM (active)
COC(=O)C1CCCCN1C(=O)c1ccc2oc(Cc3ccccc3)nc2c1 (stereo not drawn),AC50,HeLa,181 µM (active)
Cc1nn2c(-c3ccccc3)ccnc2c1-c1ccccc1,AC50,HeLa,34.7 µM (active)
COc1ccc2c(c1OC)C(=O)N(c1ccc(C)cc1)C2,AC50,HeLa,82.3 µM (active)
Cc1ccc(C(C)C)cc1OCC(=O)Nc1nnc(C2CC2)s1,IC50,Vero [8],> 25 µM (active)
COC1=C(Br)C(=O)c2nc(C)ccc2C1=O,CC50,[9],100 µM (active)
same,IC50,[10],68.1 µM (active)
same,IC50,[11],53.7 µM (inactive)
same,IC50,[12],8.73 µM (active)
same,IC50,Genome polyprotein,3.77 µM (active)
same,AC50,[13],1.71 µM (active)
CCn1nc(C)c(NC(=O)/C=C/c2cnn(C)c2C)c1C,AC50,Cytochrome P450 2D6,inconclusive
O=C(O)c1ccccc1N/N=C/c1cc(Br)cc(Br)c1O,IC50,[14],8.04 µM (active)
same,EC50,Streptococcus,60.6 µM (active)
same,CC50,Vero [15],> 25 µM (active)
same,EC50,Streptokinase A,32.4 µM (active)
same,EC50,[16],4.5 µM (active)
same,IC50,Vero [8],18.9 µM (active)
same,AC50,HeLa,57.4 µM (active)
Cc1ccsc1/C=N\NC(=O)CC(=O)NCc1ccccc1,IC50,[11],> 80 µM (inactive)

# — ChEMBL document CHEMBL1201862, “PubChem BioAssay data set” (2004)
